The text below walks through data of patent US12390446B2 (RESEARCH TRIANGLE INSTITUTE, priority 2017, dated 2025).

Read-outs that look alike come from different tables or passages of the source.

For assay [1], the target named is T1, NPFF1 receptor (human NPFFR1 in CHO-RD-HGA16 cells) (Homo sapiens, UniProt Q9GZQ6).
T1 construct: expressed in transfected cells
As to the kind of experiment: Calcium mobilization functional Ke assay, NPFF1. Format: cell-based. Particulars: for Kb: read-out: NPFF1 Ke.

For assay [2], the target named is T2, NPFF2 receptor (human NPFFR2 in CHO-RD-HGA16 cells) (Homo sapiens, UniProt Q9Y5X5).
T2 construct: expressed in transfected cells
Put plainly: Calcium mobilization functional Ke assay, NPFF2. It counts as cell-based. Particulars: for Kb: read-out: NPFF2 Ke.

The mark [3] stands for this setting: Table 2, 4-(4-methylthio)benzylamino series, mean ± SEM.
[4] abbreviates: Table 1, mean ± SEM, apparent dissociation constant vs NPFF.
Where [5] appears, read: Table 1, footnote c: pre-incubation of antagonist and test compound 45 min or 1 hr.

T1 sequence (Q9GZQ6 whole entry): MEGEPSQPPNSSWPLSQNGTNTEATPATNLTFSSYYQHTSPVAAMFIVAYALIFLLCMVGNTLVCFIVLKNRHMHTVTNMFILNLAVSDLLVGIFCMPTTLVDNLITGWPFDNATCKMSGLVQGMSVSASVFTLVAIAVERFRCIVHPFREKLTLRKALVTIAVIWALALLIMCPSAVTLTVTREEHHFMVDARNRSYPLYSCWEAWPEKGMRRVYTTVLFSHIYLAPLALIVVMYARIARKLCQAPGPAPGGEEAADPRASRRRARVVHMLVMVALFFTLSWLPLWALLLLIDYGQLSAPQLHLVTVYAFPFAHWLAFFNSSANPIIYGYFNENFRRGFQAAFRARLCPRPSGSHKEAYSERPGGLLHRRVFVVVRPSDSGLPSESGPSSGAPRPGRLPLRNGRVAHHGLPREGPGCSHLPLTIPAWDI
T2 sequence (Q9Y5X5 whole entry): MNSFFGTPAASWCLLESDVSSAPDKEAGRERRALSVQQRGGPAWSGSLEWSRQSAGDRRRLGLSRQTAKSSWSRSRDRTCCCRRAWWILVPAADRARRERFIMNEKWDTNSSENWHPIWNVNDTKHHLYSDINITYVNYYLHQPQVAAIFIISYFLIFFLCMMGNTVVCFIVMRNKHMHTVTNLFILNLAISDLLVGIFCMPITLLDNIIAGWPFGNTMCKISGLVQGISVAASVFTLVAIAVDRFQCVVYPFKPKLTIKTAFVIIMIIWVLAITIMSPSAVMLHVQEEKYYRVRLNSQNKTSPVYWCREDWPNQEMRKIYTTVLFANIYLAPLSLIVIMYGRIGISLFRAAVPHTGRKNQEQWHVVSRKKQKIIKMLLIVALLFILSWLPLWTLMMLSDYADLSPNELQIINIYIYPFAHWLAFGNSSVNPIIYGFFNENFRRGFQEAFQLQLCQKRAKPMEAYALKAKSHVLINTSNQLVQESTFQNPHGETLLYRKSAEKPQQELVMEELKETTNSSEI

Take `CCCCCCN1C[C@@H](NCc2ccc(OC)cc2)C[C@H]1C(=O)NCCc1ccccc1` [Compound 74, (2S,4S)-1-Hexyl-4-{[(4-methoxyphenyl)methyl]amino}-N-(2-phenylethyl)pyrrolidine-2-carboxamide]: the Kb stood at 1.45 µM in assay [1] (Table 4, mean ± SEM) and 7.1 µM in assay [2] (Table 4, mean ± SEM).

Take `O=C(NCCc1ccc([N+](=O)[O-])cc1)[C@@H]1C[C@H](NCc2ccccc2)CN1Cc1ccccc1Cl` [Compound 56, (2S,4S)-4-(Benzylamino)-1-[(2-chlorophenyl)methyl]-N-[2-(4-nitrophenyl)ethyl]pyrrolidine-2-carboxamide]: the Kb in assay [1] (Table 3, mean ± SEM) came out at 1.23 µM; in assay [2] (Table 3, mean ± SEM), 1.4 µM.

Consider `CSc1ccc(CN[C@H]2C[C@@H](C(=O)NCCc3ccccc3)N(Cc3ccccc3Cl)C2)cc1` [Compound 45, (2S,4S)-1-[(2-Chlorophenyl)methyl]-4-{[(4-(methylthio)phenyl)methyl]amino}-N-(2-phenylethyl)pyrrolidine-2-carboxamide], for which the results for the Kb in assay [1] (setting [3]), in assay [1] (calcium mobilization assay) and in assay [2] (setting [3]) were 0.53 ± 0.08 µM, 0.53 µM and 3.7 µM, respectively.

For the compound `COc1cccc(CN[C@H]2C[C@@H](C(=O)NCCc3ccc([N+](=O)[O-])cc3)N(Cc3ccccc3Cl)C2)c1` [Compound 59, (2S,4S)-1-[(2-Chlorophenyl)methyl]-4-{[(3-methoxyphenyl)methyl]amino}-N-[2-(4-nitrophenyl)ethyl]pyrrolidine-2-carboxamide], the Kb in assay [1] (Table 3, mean ± SEM) came to 1.39 µM; in assay [2] (Table 3, mean ± SEM), 2.82 µM.

Turning to `CCCCN[C@H]1C[C@@H](C(=O)NCCc2ccc([N+](=O)[O-])cc2)N(Cc2ccccc2Cl)C1` [Compound 53, (2S,4S)-4-(Butylamino)-1-[(2-chlorophenyl)methyl]-N-[2-(4-nitrophenyl)ethyl]pyrrolidine-2-carboxamide], the Kb was 6.12 µM in assay [1] (Table 3, mean ± SEM) and more than 10 µM in assay [2] (Table 3, mean ± SEM).

For the compound `COc1ccc(CN[C@H]2C[C@@H](C(=O)NCCc3ccc(F)cc3)N(Cc3ccccc3Cl)C2)cc1` [Compound 35, (2S,4S)-1-[(2-Chlorophenyl)methyl]-N-[2-(4-fluorophenyl)ethyl]-4-{[(4-methoxyphenyl)methyl]amino}pyrrolidine-2-carboxamide], the Kb was found to be 1.13 µM in assay [1] (setting [4]) and 9.88 µM in assay [2] (setting [4]). In assay [1] (calcium mobilization assay), the “NPFF1 Ke” value is 1,130 nM.

As for `COc1ccc(CN[C@H]2C[C@@H](C(=O)NCCc3ccccc3)N(Cc3ccccc3C)C2)cc1` [Compound 82, (2S,4S)-4-{[(4-Methoxyphenyl)methyl]amino}-1-[(2-methylphenyl)methyl]-N-(2-phenylethyl)pyrrolidine-2-carboxamide], the Kb turned out to be 0.49 ± 0.07 µM in assay [1] (Table 4, mean ± SEM) and 3.94 µM in assay [2] (Table 4, mean ± SEM).

As to `CCNC(=O)[C@@H]1C[C@H](NCc2ccc(SC)cc2)CN1Cc1ccccc1Cl` [Compound 43, (2S,4S)-1-[(2-Chlorophenyl)methyl]-N-ethyl-4-{[(4-(methylthio)phenyl)methyl]amino}pyrrolidine-2-carboxamide], the Kb in assay [1] (setting [3]) turned out to be 1.08 µM; in assay [2] (setting [3]), 5.6 µM.

Turning to `CCNC(=O)[C@@H]1C[C@H](NCc2ccc(OC)cc2)CN1Cc1ccccc1Cl` [Compound 11, (2S,4S)-1-[(2-Chlorophenyl)methyl]-N-ethyl-4-{[(4-methoxyphenyl)methyl]amino}pyrrolidine-2-carboxamide], the Kb in assay [1] (setting [4]), in assay [1] (calcium mobilization assay) and in assay [2] (setting [4]) was more than 10 µM throughout. Further, the “NPFF1 antagonist activity” value in assay [1] (at 10 μM) was “inactive”. Besides, in assay [2] (at 10 μM), the “NPFF2 antagonist activity” value is “inactive”.

Take `CCC(C)NC(=O)[C@@H]1C[C@H](NCc2ccc(OC)cc2)CN1Cc1ccccc1Cl` (stereo partly drawn) [Compound 14, (2S,4S)—N-(Butan-2-yl)-1-[(2-chlorophenyl)methyl]-4-{[(4-methoxyphenyl)methyl]amino}pyrrolidine-2-carboxamide]: the Kb was 1.5 µM in assay [1] (setting [4]) and 3.68 µM in assay [2] (setting [4]).

As to `CCCCCCCCCCNC(=O)[C@@H]1C[C@H](NCc2ccc(OC)cc2)CN1Cc1ccccc1Cl` [Compound 19, (2S,4S)-1-[(2-Chlorophenyl)methyl]-N-decyl-4-{[(4-methoxyphenyl)methyl]amino}pyrrolidine-2-carboxamide], the Kb in assay [1] (setting [5]) is more than 10 µM.

With `COc1ccc(CN[C@H]2C[C@@H](C(=O)NCCc3ccccc3)N(Cc3ccccc3)C2)cc1` [Compound 76, (2S,4S)-1-Benzyl-4-{[(4-methoxyphenyl)methyl]amino}-N-(2-phenylethyl)pyrrolidine-2-carboxamide], the Kb in assay [1] (Table 4, mean ± SEM) is 1.27 µM; in assay [2] (Table 4, mean ± SEM) it was more than 10 µM.

In the case of `CCCNC(=O)[C@@H]1C[C@H](NCc2ccc(OC)cc2)CN1Cc1ccccc1Cl` [Compound 12, (2S,4S)-1-[(2-Chlorophenyl)methyl]-4-{[(4-methoxyphenyl)methyl]amino}-N-propylpyrrolidine-2-carboxamide], the Kb in assay [1] (setting [4]) was determined as 2.6 µM; in assay [1] (calcium mobilization assay), 9.08 µM; in assay [2] (setting [4]), 9.08 µM.

`COc1ccc(CN[C@H]2C[C@@H](C(=O)NCCc3ccccc3)N(Cc3ccc(C#N)cc3)C2)cc1` [Compound 86, (2S,4S)-1-[(4-Cyanophenyl)methyl]-4-{[(4-methoxyphenyl)methyl]amino}-N-(2-phenylethyl)pyrrolidine-2-carboxamide]: the Kb was 3.83 µM in assay [1] (Table 4, mean ± SEM) and more than 10 µM in assay [2] (Table 4, mean ± SEM).

On to `CCCCCCN[C@H]1C[C@@H](C(=O)NCCc2ccc([N+](=O)[O-])cc2)N(Cc2ccccc2Cl)C1` [Compound 55, (2S,4S)-1-[(2-Chlorophenyl)methyl]-4-(hexylamino)-N-[2-(4-nitrophenyl)ethyl]pyrrolidine-2-carboxamide], for which the Kb in assay [1] (Table 3, mean ± SEM) turned out to be 2.32 µM; in assay [2] (Table 3, mean ± SEM), 4.47 µM.

Regarding `COc1ccc(CN[C@H]2C[C@@H](C(=O)NCCc3ccccc3)N(Cc3cccc(OC)c3)C2)cc1` [Compound 80, (2S,4S)-1-[(3-Methoxyphenyl)methyl]-4-{[(4-methoxyphenyl)methyl]amino}-N-(2-phenylethyl)pyrrolidine-2-carboxamide], the Kb in assay [1] (Table 4, mean ± SEM) was 2.46 µM; in assay [2] (Table 4, mean ± SEM), more than 10 µM.

As for `COc1ccc(CN[C@H]2C[C@@H](C(=O)N3CCN(c4ccccc4)CC3)N(Cc3ccccc3Cl)C2)cc1` [Compound 42, (3S,5S)-1-[(2-Chlorophenyl)methyl]-N-[(4-methoxyphenyl)methyl]-5-(4-phenylpiperazine-1-carbonyl)pyrrolidin-3-amine], the Kb in assay [1] (setting [5]) came to 1.33 µM; in assay [2] (setting [5]), 2.08 µM. In addition, the “NPFF1 Ke” value in assay [1] (calcium mobilization assay) was 1,330 nM. Moreover, the “type of antagonism in curve-shift assays” value in assay [1] (standard incubation, competitive profile with longer incubations) was “insurmountable antagonism”.

As for `COc1ccc(CN[C@H]2C[C@@H](C(=O)NCCc3ccccc3)N(Cc3ccc4ccccc4c3)C2)cc1` [Compound 87, (2S,4S)-4-{[(4-Methoxyphenyl)methyl]amino}-1-(naphthalen-2-ylmethyl)-N-(2-phenylethyl)pyrrolidine-2-carboxamide], the Kb was found to be 1.72 µM in assay [1] (Table 4, mean ± SEM) and 7.22 µM in assay [2] (Table 4, mean ± SEM).

As to `COc1ccc(CN[C@H]2C[C@@H](C(=O)NCCc3ccccc3)N(CC3CCCCC3)C2)cc1` [Compound 75, (2S,4S)-1-(Cyclohexylmethyl)-4-{[(4-methoxyphenyl)methyl]amino}-N-(2-phenylethyl) pyrrolidine-2-carboxamide], the “NPFF1 Ke” value in assay [1] (Table 4, mean ± SEM) worked out at 650 ± 70 nM. Further, in assay [2] (Table 4, mean ± SEM), the “NPFF2 Ke” value is recorded as 3,640 ± 830 nM.

As to `COc1ccc(CN[C@H]2C[C@@H](C(=O)NCCC3CCCCC3)N(Cc3ccccc3Cl)C2)cc1` [Compound 21, (2S,4S)-1-[(2-Chlorophenyl)methyl]-N-(2-cyclohexylethyl)-4-{[(4-methoxyphenyl)methyl]amino}pyrrolidine-2-carboxamide], the Kb in assay [1] (setting [4]) is 1.12 µM; in assay [2] (setting [5]), 1.22 µM.

With `COc1ccc(CN[C@H]2C[C@@H](C(=O)NCCc3ccncc3)N(Cc3ccccc3Cl)C2)cc1` [Compound 37, (2S,4S)-1-[(2-Chlorophenyl)methyl]-4-{[(4-methoxyphenyl)methyl]amino}-N-[2-(pyridin-4-yl)ethyl]pyrrolidine-2-carboxamide], the Kb in assay [1] (setting [4]) was 1.82 µM. Also, the “NPFF1 Ke” value in assay [1] (calcium mobilization assay) is 1,820 nM.

For the compound `COc1ccc(CN[C@H]2C[C@@H](C(=O)NCCN3CCOCC3)N(Cc3ccccc3Cl)C2)cc1` [Compound 20, (2S,4S)-1-[(2-Chlorophenyl)methyl]-4-{[(4-methoxyphenyl)methyl]amino}-N-[2-(morpholin-4-yl)ethyl]pyrrolidine-2-carboxamide], the Kb in assay [1] (setting [4]) turned out to be 1.96 µM.

As to `COc1ccc(CN[C@H]2C[C@@H](C(=O)NCCc3ccc(C(F)(F)F)cc3)N(Cc3ccccc3Cl)C2)cc1` [Compound 36, (2S,4S)-1-[(2-Chlorophenyl)methyl]-4-{[(4-methoxyphenyl)methyl]amino}-N-{2-[4-(trifluoromethyl)phenyl]ethyl}pyrrolidine-2-carboxamide], in assay [1] (setting [4]), the Kb was determined as 1.67 µM. Besides, the “NPFF1 Ke” value in assay [1] (calcium mobilization assay) was 1,670 nM.

With `COc1ccc(CN[C@H]2C[C@@H](C(=O)NCCc3ccc(S(C)(=O)=O)cc3)N(Cc3ccccc3Cl)C2)cc1` [Compound 39, (2S,4S)-1-[(2-Chlorophenyl)methyl]-N-[2-(4-methanesulfonylphenyl)ethyl]-4-{[(4-methoxyphenyl)methyl]amino}pyrrolidine-2-carboxamide], the Kb in assay [1] (setting [4]) stood at 1.88 µM.

For the compound `CCCCNC(=O)[C@@H]1C[C@H](NCc2ccc(OC)cc2)CN1Cc1ccccc1Cl` [Compound 13, (2S,4S)—N-Butyl-1-[(2-chlorophenyl)methyl]-4-{[(4-methoxyphenyl)methyl]amino}pyrrolidine-2-carboxamide], the Kb in assay [1] (setting [4]) worked out at 1.24 µM.
